{
  "source": "patent US20220064167A1",
  "about": "“IMIDAZO-PYRAZOLE CARBOXAMIDE DERIVATIVES AS ANTICANCER AGENTS AND THE SYNTHESIS THEREOF” (AVIDIN KFT., priority 2018, published 2022)",
  "system": "CD34 expression in HL-60 cells",
  "test": "quantitative real time PCR of stem cell marker (FIG. 3A)",
  "type": "cell-based, human",
  "conditions": "HL-60, 24 h after treatment, normalized to ACTB",
  "experimental": "HL-60 cells (10×10^6) were plated in 100 mm tissue culture dishes (Corning Life Sciences) in RPMI 10% FCS. Cells were treated in 10 mL total volume with the compound described in Example 83 24 h after treatment, nucleic acid preparation was done by using the Bioneer RNA purification kit (Bioneer, Viral RNA extraction kit, Daejeon, South Korea) according to an already published protocol (Szebeni et al. 2017a). The quality and quantity of the isolated RNA were measured with NanoDrop1000 Version 3.8.1. (Thermo Fisher Scientific). Reverse transcription from 3 μg of total RNA was performed with the High-Capacity cDNA Archive Kit (Applied Biosystems, Foster City, Calif., USA) in a total volume of 30 μL according to the manufacturer's protocol. Quantitative-real time PCR was carried out using gene specific primers for CD33 (primer sequences: forward 5′ […] 3′, reverse 5′ […] 3′) and CD34, (primer sequences: forward 5′ gcgctttgcttgctgagt 3′, reverse 5′ […] 3′) using Sybr Green detection on a LightCycler Nano instrument (Roche, Hungary). Relative gene expression data was normalized to ACTB (beta actin, primer sequences: forward 5′ attggcaatgagcggttc 3′, reverse 5′ cgtggatgccacaggact 3′) expression.",
  "data": [
    {"smiles": "CC(C)(C)Nc1c(C(C)(C)C)[nH]c2c(C(=O)Nc3ccc(N)cc3)cnn12", "note": "[Example 83, N-(4-Aminophenyl)-2-(tert-butyl)-3-(tert-butylamino)-1H-imidazo[1,2-b]pyrazole-7-carboxamide]", "values": [
      {"measurement": "expression of haematopoietic stem cell marker CD34", "value": "decreased"}
    ]}
  ]
}
